{
  "source": "patent US20200407674A1",
  "about": "“CELL HOLDING AND TRANSPORTING DEVICE” (Stem Cell & Device Laboratory, Inc., priority 2018, published 2020)",
  "system": "human iPS cell-derived cardiac myocytes",
  "assay": "Extracellular potential of cultured cardiac myocytes measured with MEA probe using device 1700",
  "format": "cell-based",
  "conditions": "dofetilide 0.0003, 0.001, 0.003 μM vs DMSO alone; MEA probe (MED64 System); FIG. 23",
  "description": "The method of using the device for retaining and transporting cells 1700 when measuring cell characteristics is described here by taking an example of measuring an extracellular potential generated by cell activity of cardiac myocytes that is formed in the device for retaining and transporting cells 1700. An MEA (Multi-Electrode Array) probe P is used for measuring the extracellular potential. The MEA probe P is a device for measuring the extracellular potential generated by cellular activity. […] The substrate PB has a thin plate shape, and the molten wall PW is formed on the substrate PB. The melted wall PW has a cylindrical shape with one end open, and stores a medium inside, forming a cell arrangement space PS for placing the cells to be tested. […] The extracellular potential of the cultured cardiac myocytes was measured using the device 1700 that is formed using polycarbonate and that has a base 1701 (diameter: 6 mm, thickness: 0.7 mm), a through hole 1703 (diameter: 1.5 mm), a cell culture holding part 105 made of an oriented fiber sheet with a pitch of 10 μm, a manipulating part 1707, and the air vent section 1711, and the MEA probe P (MED64 System, Alpha MED Scientific Inc.). […] The drug response of the cultured cardiac myocytes can be measured by means of the extracellular potential by changing the conditions of the drug to be administered to the cultured cardiac myocytes. […]",
  "data": [
    {"smiles": "CN(CCOc1ccc(NS(C)(=O)=O)cc1)CCc1ccc(NS(C)(=O)=O)cc1", "note": "[dofetilide, Dofetilide]", "values": [
      {"measurement": "time required from the first peak potential to the second peak potential", "result": "prolonged depending on the concentration"}
    ]}
  ]
}
